Experimental data reported in PMC6272711, “5-Methoxyquinoline Derivatives as a New Class of EZH2 Inhibitors” (Molecules, 2015).
Entries after “also recorded” stand apart in the source; their conditions may differ. Read-outs that look alike come from different tables or passages of the source.

What was measured:
HCT15 = experiment: MTT cell growth inhibition, HCT15; assay type: cell-based, human; conditions: means of at least three measurements
MDA-MB-231 = experiment: MTT cell growth inhibition, MDA-MB-231; assay type: cell-based; conditions: Homo sapiens, MDA-MB-231, 96 h, read-out: IC50 MDA-MB-231
SMYD3 = target: T1, SMYD3 (Homo sapiens, UniProt Q9H7B4); experiment: Enzyme selectivity assay, SMYD3; assay type: biochemical; conditions: means of at least three measurements
T1 sequence (Q9H7B4 1-428): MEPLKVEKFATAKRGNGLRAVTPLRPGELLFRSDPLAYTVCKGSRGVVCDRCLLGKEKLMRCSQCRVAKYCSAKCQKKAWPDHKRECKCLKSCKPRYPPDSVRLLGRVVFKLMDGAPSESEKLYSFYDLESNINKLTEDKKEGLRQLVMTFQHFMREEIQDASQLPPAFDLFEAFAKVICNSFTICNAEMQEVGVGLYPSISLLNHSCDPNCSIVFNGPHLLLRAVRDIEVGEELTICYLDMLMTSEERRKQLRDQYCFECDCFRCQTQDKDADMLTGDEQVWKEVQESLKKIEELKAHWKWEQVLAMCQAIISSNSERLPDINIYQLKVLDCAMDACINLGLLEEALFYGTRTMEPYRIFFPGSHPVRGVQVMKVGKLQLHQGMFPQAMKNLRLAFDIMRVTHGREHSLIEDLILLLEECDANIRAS

G9a = target: T2, G9a (Homo sapiens, UniProt Q96KQ7); experiment: Enzyme selectivity assay, G9a; assay type: biochemical; conditions: means of at least three measurements
T2 sequence (Q96KQ7 1-1210): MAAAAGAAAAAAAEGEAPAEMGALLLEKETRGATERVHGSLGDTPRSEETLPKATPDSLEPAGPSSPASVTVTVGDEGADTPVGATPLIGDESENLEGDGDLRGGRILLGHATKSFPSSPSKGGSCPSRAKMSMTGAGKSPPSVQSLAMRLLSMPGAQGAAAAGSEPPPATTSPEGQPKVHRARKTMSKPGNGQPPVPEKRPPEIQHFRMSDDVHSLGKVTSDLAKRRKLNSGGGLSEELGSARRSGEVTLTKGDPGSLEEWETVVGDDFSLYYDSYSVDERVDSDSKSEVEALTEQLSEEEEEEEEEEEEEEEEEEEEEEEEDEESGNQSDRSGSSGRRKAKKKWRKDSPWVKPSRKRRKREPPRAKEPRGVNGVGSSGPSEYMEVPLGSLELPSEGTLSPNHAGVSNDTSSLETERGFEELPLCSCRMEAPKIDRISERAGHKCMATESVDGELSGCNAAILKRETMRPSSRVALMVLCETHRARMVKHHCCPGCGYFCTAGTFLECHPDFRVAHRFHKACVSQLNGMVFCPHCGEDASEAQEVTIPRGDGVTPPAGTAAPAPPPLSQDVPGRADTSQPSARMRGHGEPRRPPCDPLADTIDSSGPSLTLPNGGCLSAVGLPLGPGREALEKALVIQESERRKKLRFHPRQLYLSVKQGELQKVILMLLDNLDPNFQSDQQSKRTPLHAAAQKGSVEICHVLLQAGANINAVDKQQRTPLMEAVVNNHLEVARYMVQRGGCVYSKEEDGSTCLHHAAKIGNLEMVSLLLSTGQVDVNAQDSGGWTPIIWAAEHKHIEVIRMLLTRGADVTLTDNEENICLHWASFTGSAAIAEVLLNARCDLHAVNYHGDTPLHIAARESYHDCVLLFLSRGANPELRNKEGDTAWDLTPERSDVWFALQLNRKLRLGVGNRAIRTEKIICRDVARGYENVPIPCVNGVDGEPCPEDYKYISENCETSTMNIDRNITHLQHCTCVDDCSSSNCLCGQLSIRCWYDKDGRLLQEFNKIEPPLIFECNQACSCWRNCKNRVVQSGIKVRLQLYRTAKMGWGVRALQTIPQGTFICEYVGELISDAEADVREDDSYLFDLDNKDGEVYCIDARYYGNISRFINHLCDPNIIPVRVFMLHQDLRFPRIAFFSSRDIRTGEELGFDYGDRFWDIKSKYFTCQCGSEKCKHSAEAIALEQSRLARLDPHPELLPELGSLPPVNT

SUV39H1 = target: T3, SUV39H1 (Homo sapiens, UniProt O43463); experiment: Enzyme selectivity assay, SUV39H1; assay type: biochemical; conditions: means of at least three measurements
T3 sequence (O43463 1-412): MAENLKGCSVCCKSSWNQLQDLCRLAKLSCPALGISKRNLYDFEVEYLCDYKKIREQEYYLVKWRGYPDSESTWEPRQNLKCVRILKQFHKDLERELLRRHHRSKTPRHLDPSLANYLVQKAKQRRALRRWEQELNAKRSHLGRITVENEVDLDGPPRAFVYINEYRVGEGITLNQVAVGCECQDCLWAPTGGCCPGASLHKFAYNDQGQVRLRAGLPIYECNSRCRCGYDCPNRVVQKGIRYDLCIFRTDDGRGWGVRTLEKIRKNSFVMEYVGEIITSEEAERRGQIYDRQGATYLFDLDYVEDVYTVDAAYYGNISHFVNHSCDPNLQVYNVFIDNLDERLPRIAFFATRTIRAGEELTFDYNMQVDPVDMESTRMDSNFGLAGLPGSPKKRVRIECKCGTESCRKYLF

SETDB1 = SETDB1 (Homo sapiens, UniProt Q15047); experiment: Enzyme selectivity assay, SETDB1; assay type: biochemical; conditions: means of at least three measurements
PRMT1 = PRMT1 (Homo sapiens, UniProt Q99873); experiment: Enzyme selectivity assay, PRMT1; assay type: biochemical; conditions: means of at least three measurements
Sequence of PRMT1 (Q99873 whole entry, species assumed): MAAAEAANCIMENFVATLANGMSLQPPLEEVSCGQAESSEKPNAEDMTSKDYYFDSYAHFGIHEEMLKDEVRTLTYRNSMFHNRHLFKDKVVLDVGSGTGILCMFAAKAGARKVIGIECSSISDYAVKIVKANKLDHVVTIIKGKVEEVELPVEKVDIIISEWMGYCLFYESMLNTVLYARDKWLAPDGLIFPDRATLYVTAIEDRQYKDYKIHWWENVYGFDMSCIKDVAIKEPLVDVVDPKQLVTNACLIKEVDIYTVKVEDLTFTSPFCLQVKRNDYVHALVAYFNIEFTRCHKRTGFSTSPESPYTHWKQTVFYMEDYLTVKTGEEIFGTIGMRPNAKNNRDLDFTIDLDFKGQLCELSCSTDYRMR

SETD8 = target: T4, SETD8 (Homo sapiens, UniProt Q9NQR1); experiment: Enzyme selectivity assay, SETD8; assay type: biochemical; conditions: means of at least three measurements
T4 sequence (Q9NQR1 1-393): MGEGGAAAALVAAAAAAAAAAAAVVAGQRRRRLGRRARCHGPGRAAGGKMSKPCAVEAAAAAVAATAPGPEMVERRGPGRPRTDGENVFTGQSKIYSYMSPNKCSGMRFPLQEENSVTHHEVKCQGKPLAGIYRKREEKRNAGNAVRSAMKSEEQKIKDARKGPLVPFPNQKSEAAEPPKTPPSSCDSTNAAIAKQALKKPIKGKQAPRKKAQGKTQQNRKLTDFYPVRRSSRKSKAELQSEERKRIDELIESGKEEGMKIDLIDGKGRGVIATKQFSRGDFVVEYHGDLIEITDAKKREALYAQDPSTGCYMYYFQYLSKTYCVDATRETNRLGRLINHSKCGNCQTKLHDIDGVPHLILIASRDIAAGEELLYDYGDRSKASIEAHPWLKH

[1] = test system: H3K27me3 level in MDA-MB-231 cell line; experiment: Western blotting assay of H3K27me3 status; assay type: cell-based, human; conditions: MDA-MB-231 cells, treatment for 72 h, western blot, total H3 loading control
Description: The main catalytic activity of EZH2 is methylating histone 3 lysine 27 (H3K27), so evaluation of H3K27me3 was conducted through a western blotting assay.
Figure 3 Analysis of H3K27 methylation in MDA-MB-231 cell line treated with 1 and 5k. Evaluation of H3K27me3 following treatment for 72 h. Total H3 is shown as a loading control.
The western blotting assay of H3K27 status was performed as previously described.

EZH2 = EZH2 (Homo sapiens, UniProt Q15910); experiment: AlphaLISA assay for EZH2; assay type: biochemical; conditions: enzymatic assay; means of at least three measurements
Sequence of EZH2 (Q15910 whole entry): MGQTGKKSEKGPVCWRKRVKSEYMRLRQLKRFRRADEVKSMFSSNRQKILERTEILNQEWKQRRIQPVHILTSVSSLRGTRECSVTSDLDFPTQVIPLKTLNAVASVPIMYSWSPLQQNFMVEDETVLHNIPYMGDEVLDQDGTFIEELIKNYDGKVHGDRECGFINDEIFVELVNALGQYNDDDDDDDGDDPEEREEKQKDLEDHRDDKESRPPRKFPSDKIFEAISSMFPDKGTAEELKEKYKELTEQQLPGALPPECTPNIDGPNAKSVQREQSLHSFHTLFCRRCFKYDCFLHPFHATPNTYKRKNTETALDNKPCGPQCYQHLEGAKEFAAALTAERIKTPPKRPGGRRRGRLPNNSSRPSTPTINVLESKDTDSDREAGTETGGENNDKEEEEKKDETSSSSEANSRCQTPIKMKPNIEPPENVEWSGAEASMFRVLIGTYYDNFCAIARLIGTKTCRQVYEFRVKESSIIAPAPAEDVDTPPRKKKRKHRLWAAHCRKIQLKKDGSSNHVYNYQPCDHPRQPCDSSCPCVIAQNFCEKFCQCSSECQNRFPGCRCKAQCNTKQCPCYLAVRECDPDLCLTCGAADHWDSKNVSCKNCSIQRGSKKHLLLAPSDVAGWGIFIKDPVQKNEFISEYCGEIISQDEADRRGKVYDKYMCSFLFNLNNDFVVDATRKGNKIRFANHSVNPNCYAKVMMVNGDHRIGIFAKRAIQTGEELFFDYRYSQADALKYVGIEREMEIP
Sequence of EZH2 (O75530 whole entry partner): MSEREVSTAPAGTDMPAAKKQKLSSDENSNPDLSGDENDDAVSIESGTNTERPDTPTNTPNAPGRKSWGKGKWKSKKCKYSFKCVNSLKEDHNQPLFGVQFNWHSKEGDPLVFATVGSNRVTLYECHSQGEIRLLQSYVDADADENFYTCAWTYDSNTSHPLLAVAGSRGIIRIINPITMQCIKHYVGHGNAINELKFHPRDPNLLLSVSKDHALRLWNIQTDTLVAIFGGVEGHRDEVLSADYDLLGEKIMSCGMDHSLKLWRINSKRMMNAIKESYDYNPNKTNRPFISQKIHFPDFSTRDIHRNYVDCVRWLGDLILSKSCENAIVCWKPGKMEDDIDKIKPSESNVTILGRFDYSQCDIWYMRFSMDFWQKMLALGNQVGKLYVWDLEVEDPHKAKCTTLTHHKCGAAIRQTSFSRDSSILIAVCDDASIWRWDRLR
Sequence of EZH2 (Q15022 whole entry partner): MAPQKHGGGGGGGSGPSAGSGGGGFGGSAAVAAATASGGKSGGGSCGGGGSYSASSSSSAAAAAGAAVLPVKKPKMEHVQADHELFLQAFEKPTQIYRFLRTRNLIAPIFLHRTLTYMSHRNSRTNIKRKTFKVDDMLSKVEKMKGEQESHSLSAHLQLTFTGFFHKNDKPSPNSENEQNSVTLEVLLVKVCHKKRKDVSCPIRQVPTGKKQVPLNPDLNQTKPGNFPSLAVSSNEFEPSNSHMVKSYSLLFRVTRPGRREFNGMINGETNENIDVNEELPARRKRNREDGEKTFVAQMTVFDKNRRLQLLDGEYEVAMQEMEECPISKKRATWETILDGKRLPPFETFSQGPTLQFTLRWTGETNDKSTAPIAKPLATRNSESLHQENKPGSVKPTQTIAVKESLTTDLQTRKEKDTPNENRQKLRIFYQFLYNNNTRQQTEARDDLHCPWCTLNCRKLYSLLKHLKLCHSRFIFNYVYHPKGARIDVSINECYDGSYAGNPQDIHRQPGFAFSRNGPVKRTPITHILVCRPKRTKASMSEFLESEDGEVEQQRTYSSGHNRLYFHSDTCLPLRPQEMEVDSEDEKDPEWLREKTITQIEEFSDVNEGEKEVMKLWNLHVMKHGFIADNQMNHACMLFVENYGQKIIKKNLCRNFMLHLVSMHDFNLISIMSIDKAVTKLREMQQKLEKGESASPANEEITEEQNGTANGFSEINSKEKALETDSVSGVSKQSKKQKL

[2] = Homo sapiens, HCT-15, 96 h, read-out: IC50 HCT15, MTT, treatment 96 h

Work on `COc1cccc2nc(N3CCCN(C)CC3)cc(NC3CCN(C)CC3)c12` [Compound 5k, 5-Methoxy-2-(4-methyl-1,4-diazepan-1-yl)-N-(1-methylpiperidin-4-yl)quinolin-4-amine] yielded an IC50 (HCT15; [2]) of 5.6 µM, an IC50 (HCT15; read-out: IC50 HCT15, MTT, treatment 96 h) of 7.6 ± 0.46 µM and an IC50 (MDA-MB-231) of 2.45 ± 0.24 µM. For the same compound, the IC50 (SMYD3) was 35.4 ± 1.97 µM, the IC50 (G9a) was 82.6 ± 2.23 µM and the IC50 (SUV39H1) was 21.2 ± 0.28 µM. For the same compound, the IC50 (SETDB1) was 27 ± 1.36 µM, the IC50 (PRMT1) was 28.8 ± 1.25 µM and the IC50 (SETD8) was 40 ± 2.71 µM. The H3K27me3 level [1] was “decreased global H3K27me3 level in cells; also recorded: obviously down-regulated”.
With `COc1cc2nc(N3CCCN(C)CC3)cc(NC3CCN(C)CC3)c2cc1OC` [Compound 9g, 6,7-Dimethoxy-2-(4-methyl-1,4-diazepan-1-yl)-N-(1-methylpiperidin-4-yl)quinolin-4-amine] the IC50 (EZH2) was 17.8 ± 2.07 µM, the IC50 (HCT15; [2]) was 15.9 ± 1.85 µM and the IC50 (MDA-MB-231) was > 20 µM.
`COc1cccc2nc(N3CCCN(C)CC3)cc(Nc3ccc([N+](=O)[O-])cc3)c12` [Compound 5u, 5-Methoxy-2-(4-methyl-1,4-diazepan-1-yl)-N-(4-nitrophenyl)quinolin-4-amine] gave an IC50 (EZH2) of 26.2 ± 2.54 µM, an IC50 (HCT15; [2]) of 17.8 ± 1.27 µM and an IC50 (MDA-MB-231) of 14.9 ± 2.2 µM.
With `COc1cccc2nc(N3CCCN(C)CC3)cc(NC3CCN(C(C)C)CC3)c12` [Compound 5i, N-(1-Isopropylpiperidin-4-yl)-5-methoxy-2-(4-methyl-1,4-diazepan-1-yl)quinolin-4-amine] the IC50 (EZH2) was 17.4 ± 1.07 µM, the IC50 (HCT15; [2]) was > 20 µM and the IC50 (MDA-MB-231) was 15.7 ± 1.27 µM.
